Results: patent publication EP2070923A1, “Insecticide iminoheterocycles” (priority 2007, dated 2009)
Like-named read-outs stand apart in the source and are kept apart here. One block for each compound: values may come before it.

Key:
[1] = logP (HCOOH); conditions: hplc, formic acid
[2] = physchem; conditions: hplc, formic acid
[3] = test system: Myzus persicae; assay: Myzus test (spray treatment); type: in vivo; conditions: foliar, read-out: Wirkung
Description: Myzus-Test (Spritzbehandlung)
(§1) Zur Herstellung einer zweckmäßigen Wirkstoffzubereitung vermischt man 1 Gewichtsteil Wirkstoff mit den angegebenen Mengen Lösungsmittel und Emulgator und verdünnt das Konzentrat mit emulgatorhaltigem Wasser auf die gewünschte Konzentration. Chinakohlblattscheiben (Brassica pekinensis), die von allen Stadien der Grünen Pfirsichblattlaus (Myzus persicae) befallen sind, werden mit einer Wirkstoffzubereitung der gewünschten Konzentration gespritzt. Nach der gewünschten Zeit wird die Wirkung in % bestimmt. Dabei bedeutet 100 %, dass alle Blattläuse abgetötet wurden; 0 % bedeutet, dass keine Blattläuse abgetötet wurden. Bei diesem Test zeigen z. B. die folgenden Verbindungen der Herstellungsbeispiele eine Wirkung von ≥ 80 % bei einer Aufwandmenge von 500 g/ha: • Bsp. Nr. 2, 3, 31, 32, 33, 36, 37, 39, 40, 41, 42, 43, 44, 45, 46, 63, 64, 65, 66, 86, 87, 88, 90, 95, 96, 97, 99, 103

[4] = test system: Boophilus microplus; assay: Boophilus microplus test (injection); type: in vivo; conditions: 20 µg/Tier; injection into abdomen; 100 % = no tick laid fertile eggs
Description: Boophilus microplus -Test (Injektion)
Zur Herstellung einer zweckmäßigen Wirkstoffzubereitung vermischt man 1 Gewichtsteil Wirkstoff mit der angegebenen Menge Lösungsmittel und verdünnt das Konzentrat mit Lösungsmittel auf die gewünschte Konzentration. Die Wirkstofflösung wird in das Abdomen (Boophilus microplus) injiziert, die Tiere werden in Schalen überführt und in einem klimatisierten Raum aufbewahrt. Nach der gewünschten Zeit wird die Wirkung in % bestimmt. Dabei bedeutet 100%, dass keine Zecke fertile Eier gelegt hat. Bei diesem Test zeigen z. B. die folgenden Verbindungen der Herstellungsbeispiele eine Wirkung von = 80 % bei einer Aufwandmenge von 20 µg/Tier: • Bsp. Nr. 43, 44, 45, 46, 63, 64, 65, 66

[5] = test system: Tetranychus urticae; assay: Tetranychus test, OP-resistant (spray treatment); type: in vivo; conditions: foliar, spray on Phaseolus vulgaris leaf discs, 100 % = all spider mites killed, read-out: Wirkung
Description: Tetranychus-Test, OP-resistent (Spritzbehandlung)
as §1, with “Bohnenblattscheiben (Phaseolus vulgaris),” for “Chinakohlblattscheiben (Brassica pekinensis),”, “Gemeinen Spinnmilbe (Tetranychus urticae)” for “Grünen Pfirsichblattlaus (Myzus persicae)”, “Spinnmilben” for “Blattläuse”, “100” for “500”, “83” for “2, 3, 31, 32, 33, 36, 37, 39, 40, 41, 42, 43, 44, 45, 46, 63, 64, 65, 66, 86, 87, 88, 90, 95, 96, 97, 99, 103”

[6] = test system: Meloidogyne incognita; assay: Meloidogyne test (spray treatment), gall formation on lettuce roots; type: in vivo; conditions: 20 ppm; 100 % = no galls found
Description: Meloidogyne-Test (Spritzbehandlung)
Zur Herstellung einer zweckmäßigen Wirkstoffzubereitung vermischt man 1 Gewichtsteil Wirkstoff mit der angegebenen Menge Lösungsmittel und verdünnt das Konzentrat mit Wasser auf die gewünschte Konzentration. Gefäße werden mit Sand, Wirkstofflösung, Meloidogyne incognita-Ei-Larven-Suspension und Salatsamen gefüllt. Die Salatsamen keimen und die Pflänzchen entwickeln sich. An den Wurzeln entwickeln sich die Gallen. Nach der gewünschten Zeit wird die nematizide Wirkung an Hand der Gallenbildung in % bestimmt. Dabei bedeutet 100 %, dass keine Gallen gefunden wurden; 0 % bedeutet, dass die Zahl der Gallen an den behandelten Pflanzen der der unbehandelten Kontrolle entspricht. Bei diesem Test zeigen z. B. die folgenden Verbindungen der Herstellungsbeispiele eine Wirkung von ≥ 80 % bei einer Aufwandmenge von 20 ppm: • Bsp. Nr. 15, 16, 18

[7] = 500 g/ha, spray on Brassica pekinensis leaf discs, 100 % = all aphids killed

SMILES: Cn1cccc1CN=C1NCCO1 [Beispiel 80]
- chromatographic logP [2]: -0.09

SMILES: CCC(N=C1NCCO1)c1ccc(C)c(C)n1 (centres unmarked) [Beispiel 8]
- chromatographic logP [2]: 0.06

SMILES: CC(N=C1OCCN1C(=S)NCC(F)(F)F)c1cc2ccccc2o1 (centres unmarked) [Beispiel 107]
- chromatographic logP [1]: 4.47

SMILES: CCOC(=O)CNC(=S)N1CCOC1=NCc1ccc(Cl)nc1 [Beispiel 188]
- chromatographic logP [1]: 2.54

SMILES: CCC(N=C1OCCN1C(=O)NCCCl)c1ccc(C(F)(F)F)cn1 (centres unmarked) [Beispiel 5]
- chromatographic logP [1]: 2.15

SMILES: CNC(=S)N1CCOC1=NCc1ccco1 [Beispiel 91]
- chromatographic logP [1]: 1.89

SMILES: C[C@H](N=C1NCCS1)c1cccs1 [Beispiel 101]
- chromatographic logP [2]: 0.54

SMILES: FC(F)(F)CNC(=S)N1CCOC1=NCc1ccco1 [Beispiel 94]
- chromatographic logP [1]: 3.29

SMILES: COCCNC(=S)N1CCOC1=NCc1cccn1C [Beispiel 83]
- mortality at 100 g/ha [5]: ≥ 80%
- chromatographic logP [1]: 2.37

SMILES: c1coc(CN=C2NCCO2)c1 [Beispiel 90]
- mortality at 500 g/ha ([3]; in Brassica rapa): ≥ 80%
- chromatographic logP [2]: -0.23

SMILES: CC(N=C1NCCO1)c1cc2ccccc2o1 (centres unmarked) [Beispiel 103]
- mortality at 500 g/ha ([3]; in Brassica rapa): ≥ 80%
- chromatographic logP [2]: 0.93

SMILES: CC(N=C1NCCO1)c1ccco1 (centres unmarked) [Beispiel 95]
- mortality at 500 g/ha ([3]; in Brassica rapa): ≥ 80%

SMILES: COCCNC(=S)N1CCOC1=NCc1ccco1 [Beispiel 93]
- chromatographic logP [1]: 2.84

SMILES: CCC(N=C1OCCN1C(=O)NCCCl)c1ccc(C)c(C)n1 (centres unmarked) [Beispiel 9]
- chromatographic logP [1]: 1.18

SMILES: C[C@H](N=C1NCCO1)c1cccs1 [Beispiel 37]
- mortality at 500 g/ha ([3]; in Brassica rapa): ≥ 80%
- chromatographic logP [2]: 0.33

SMILES: c1cc(CN=C2NCCO2)cs1 [Beispiel 32]
- mortality at 500 g/ha ([3]; in Brassica rapa): ≥ 80%
- chromatographic logP [2]: -0.05

SMILES: CCC(N=C1NCCO1)c1ccccn1 (centres unmarked) [Beispiel 12]
- chromatographic logP [2]: -0.01

SMILES: CC(N=C1NCCO1)c1ccnc(Cl)c1 (centres unmarked) [Beispiel 194]
- chromatographic logP [2]: 0.02

SMILES: CC(C)NC(=S)N1CCOC1=NCc1ccc(Cl)nc1 [Beispiel 187]
- chromatographic logP [2]: 3.14

SMILES: COCCNC(=S)N1CCOC1=NCc1ccsc1 [Beispiel 34]
- chromatographic logP [1]: 2.71

SMILES: CCC(N=C1NCCO1)c1ccc(C(F)(F)F)cn1 (centres unmarked) [Beispiel 4]
- chromatographic logP [2]: 0.97

SMILES: CCC(N=C1OCCN1C(=S)NCCOC)c1ccc(C(F)(F)F)cn1 (centres unmarked) [Beispiel 6]
- chromatographic logP [1]: 3.69

SMILES: c1csc(CN=C2NCCO2)c1 [Beispiel 39]
- mortality at 500 g/ha ([3]; in Brassica rapa): ≥ 80%
- chromatographic logP [2]: -0.08

SMILES: CC(N=C1NCCO1)c1cccs1 (centres unmarked) [Beispiel 36]
- mortality at 500 g/ha ([3]; in Brassica rapa): ≥ 80%
- chromatographic logP [2]: 0.28

SMILES: CCC(N=C1OCCN1C(=S)NCCOC)c1ccc(C)c(C)n1 (centres unmarked) [Beispiel 11]
- chromatographic logP [1]: 1.33

SMILES: CNC(=S)N1CCOC1=NCc1ccsc1 [Beispiel 35]
- chromatographic logP [1]: 1.83

The next lines start with results.

- chromatographic logP [1]: 3.9
SMILES: COCCNC(=S)N1CCOC1=NC(C)c1cc2ccccc2o1 (centres unmarked) [Beispiel 106]

- chromatographic logP [1]: 3.64
SMILES: CNC(=S)N1CCOC1=NC(C)c1cc2ccccc2o1 (centres unmarked) [Beispiel 104]

- chromatographic logP [1]: 4.72
SMILES: CCNC(=S)N1CCOC1=NC(CC)c1cc(Br)cs1 (centres unmarked) [Beispiel 31]
- mortality at 500 g/ha [3, 7]: ≥ 80%

- chromatographic logP [1]: 3.02
SMILES: CNC(=S)N1CCOC1=N[C@@H](C)c1cccs1 [Beispiel 63]
- mortality at 500 g/ha [3, 7]: ≥ 80%
- Wirkung [4]: 80%

- chromatographic logP [1]: 1.12
SMILES: COCCNC(=S)N1CCOC1=NC(C)c1ccccn1 (centres unmarked) [Beispiel 3]
- mortality at 500 g/ha [3, 7]: ≥ 80%

- chromatographic logP [1]: 4.48
SMILES: CCC(N=C1OCCN1C(=S)NCCOC)c1cc(Br)cs1 (centres unmarked) [Beispiel 30]

- chromatographic logP [1]: 2.84
SMILES: COCCNC(=S)N1CCOC1=NCc1cccs1 [Beispiel 42]
- mortality at 500 g/ha [3, 7]: ≥ 80%

- chromatographic logP [1]: 3.07
SMILES: CCNC(=S)N1CCOC1=NC(C)c1ccnc(Cl)c1 (centres unmarked) [Beispiel 196]

- chromatographic logP [1]: 1.53
SMILES: CCNC(=S)N1CCOC1=NC(CC)c1ccccn1 (centres unmarked) [Beispiel 13]

- chromatographic logP [1]: 2.58
SMILES: CNC(=S)N1CCOC1=NC(C)c1ccnc(Cl)c1 (centres unmarked) [Beispiel 195]

- chromatographic logP [1]: 4.96
SMILES: CCNC(=S)N1CCOC1=NC(CC)c1ccc(Cl)s1 (centres unmarked) [Beispiel 108]

- chromatographic logP [1]: 3.58
SMILES: CCNC(=S)N1CCOC1=NC(C)c1cccs1 (centres unmarked) [Beispiel 44]
- mortality at 500 g/ha [3, 7]: ≥ 80%
- Wirkung [4]: 80%

- chromatographic logP [1]: 3.46
SMILES: CCC(N=C1OCCN1C(=S)NC)c1cccs1 (centres unmarked) [Beispiel 86]
- mortality at 500 g/ha [3, 7]: ≥ 80%

- chromatographic logP [1]: 3.59
SMILES: CCNC(=S)N1CCOC1=N[C@@H](C)c1cccs1 [Beispiel 64]
- mortality at 500 g/ha [3, 7]: ≥ 80%
- Wirkung [4]: 80%

- chromatographic logP [1]: 2.56
SMILES: CCNC(=S)N1CCOC1=NCc1ccsc1 [Beispiel 33]
- mortality at 500 g/ha [3, 7]: ≥ 80%

- chromatographic logP [1]: 1.14
SMILES: CCNC(=S)N1CCOC1=NC(CC)c1ccc(C)c(C)n1 (centres unmarked) [Beispiel 10]

- chromatographic logP [1]: 3.28
SMILES: COCCNC(=S)N1CCOC1=NC(C)c1cccs1 (centres unmarked) [Beispiel 45]
- mortality at 500 g/ha [3, 7]: ≥ 80%
- Wirkung [4]: 80%

- chromatographic logP [1]: 3.71
SMILES: CCC(N=C1OCCN1C(=S)NCCOC)c1cccs1 (centres unmarked) [Beispiel 88]
- mortality at 500 g/ha [3, 7]: ≥ 80%

- chromatographic logP [1]: 1.07
SMILES: CCNC(=S)N1CCOC1=NC(C)c1ccncc1 (centres unmarked) [Beispiel 18]
- nematizide Wirkung an Hand der Gallenbildung [6]: ≥ 80%

- chromatographic logP [1]: 1.07
SMILES: COCCNC(=S)N1CCOC1=NC(C)c1cccnc1 (centres unmarked) [Beispiel 16]
- nematizide Wirkung an Hand der Gallenbildung [6]: ≥ 80%

- chromatographic logP [1]: 2.45
SMILES: CNC(=S)N1CCOC1=NCc1cccs1 [Beispiel 40]
- mortality at 500 g/ha [3, 7]: ≥ 80%

- chromatographic logP [1]: 2.38
SMILES: CNC(=S)N1CCOC1=NC(C)c1ccco1 (centres unmarked) [Beispiel 96]
- mortality at 500 g/ha [3, 7]: ≥ 80%

- chromatographic logP [1]: 2.58
SMILES: CCNC(=S)N1CCOC1=NCc1ccco1 [Beispiel 92]

- chromatographic logP [1]: 1.45
SMILES: CCn1ccc(C(C)N=C2OCCN2C(=S)NC)n1 (centres unmarked) [Beispiel 76]

- chromatographic logP [1]: 1.16
SMILES: CCNC(=S)N1CCOC1=NC(C)c1cccnc1 (centres unmarked) [Beispiel 15]
- nematizide Wirkung an Hand der Gallenbildung [6]: ≥ 80%

- chromatographic logP [1]: 3.98
SMILES: C[C@H](N=C1OCCN1C(=S)NCC(F)(F)F)c1cccs1 [Beispiel 66]
- mortality at 500 g/ha [3, 7]: ≥ 80%
- Wirkung [4]: 80%

- chromatographic logP [1]: 2.83
SMILES: COCCNC(=S)N1CCOC1=NC(C)c1ccnc(Cl)c1 (centres unmarked) [Beispiel 197]

- chromatographic logP [1]: 1
SMILES: COCCNC(=S)N1CCOC1=NC(C)c1ccncc1 (centres unmarked) [Beispiel 19]

- chromatographic logP [1]: 3.85
SMILES: CCNC(=S)N1CCOC1=NC(CC)c1ccc(C(F)(F)F)cn1 (centres unmarked) [Beispiel 7]

- chromatographic logP [1]: 4.18
SMILES: CCNC(=S)N1CCOC1=NC(C)c1cc2ccccc2o1 (centres unmarked) [Beispiel 105]

- chromatographic logP [1]: 3.14
SMILES: CCOC(=O)CNC(=S)N1CCOC1=NC(C)c1ccnc(Cl)c1 (centres unmarked) [Beispiel 198]

- chromatographic logP [1]: 4.06
SMILES: CCNC(=S)N1CCOC1=NC(CC)c1cccs1 (centres unmarked) [Beispiel 87]
- mortality at 500 g/ha [3, 7]: ≥ 80%

- chromatographic logP [1]: 1.26
SMILES: CCNC(=S)N1CCO/C1=N/C(C)c1ccccn1 (centres unmarked) [Beispiel 2, (2E)-N-ethyl-2-[(1-pyridin-2-ylethyl)imino]-1,3-oxazolidine-3-carbothioamid]
- mortality at 500 g/ha [3, 7]: ≥ 80%

- chromatographic logP [1]: 3.99
SMILES: CC(N=C1OCCN1C(=S)NCC(F)(F)F)c1cccs1 (centres unmarked) [Beispiel 46]
- mortality at 500 g/ha [3, 7]: ≥ 80%
- Wirkung [4]: 80%

- chromatographic logP [1]: 2.99
SMILES: CNC(=S)N1CCOC1=NC(C)c1cccs1 (centres unmarked) [Beispiel 43]
- mortality at 500 g/ha [3, 7]: ≥ 80%
- Wirkung [4]: 80%
